How the values were obtained:
[1] = test system: ApoA2 pre-mRNA; assay: ApoA2 pre-mRNA splicing, RT-PCR; format: cell-based; details: MDA-MB-231 cells, endogenous gene
Protocol: (§1) Long stretches of TG repeats are found in exon 9 and intron 9 of Lamp2 gene. A shorter stretch is located in intron 10. […] RT-PCR analysis was performed to test if ALT-59 treatment affects LAMP2 alternative splicing. MDA-MB-231 cells were cultured as described above and treated with DMSO or 6 μM ALT-59. Total RNA was extracted using the RNeasy Mini Kit (Qiagen) and equal amount of RNA was reverse transcribed using the SuperScript III First-Strand Synthesis System (Invitrogen). PCR reactions were performed using forward primer located on exon 1 and a reverse primer located on exon 11. PCR samples were resolved in a 1.2% agarose gel and stained with ethidium bromide.
(§2) It has been reported that TDP-43 causes CFTR exon 9 skipping, ApoA2 exon 3 skipping, and POLDIP3 exon 3 inclusion. Additional experiments were performed to further confirm that TDP-43 is the target of ALT-59. RT-PCR analysis was performed as described above using the following primers for the three genes. PCR samples were analyzed by polyacrylamide gel electrophoresis and stained with ethidium bromide.

[2] = test system: Tau; assay: Tau expression, Western blot in U-87 MG cells; format: cell-based; details: 2 days
Protocol: (§3) U-87 MG and T98G cells were maintained at 37° C. in a CO2 incubator in Dulbecco's Modified Eagle's Medium (DMEM) supplemented with 10% fetal bovine serum (FBS) and 1% of penicillin/streptomycin (Invitrogen). Cells were treated with DMSO, 3 μM, or 6 μM ALT-59 for 2 days and subjected to Western blotting analysis using the indicated antibodies. Protein bands were quantified using the ImageJ software.

[3] = test system: Phe508del-CFTR; assay: Phe508del-CFTR localization, immunofluorescence microscopy, primary bronchial epithelial cells of a cystic fibrosis patient; format: cell-based, human; details: primary bronchial epithelial cells homozygous for Phe508del-CFTR, 4 μM, 3 days
Protocol: (§4) MDA-MB-231 and U-87 MG cells were cultured on cover slips under the conditions as described above. Cells were treated with DMSO or 4 μM ALT-59 for 3 days. Primary human bronchial epithelial cells isolated from cystic fibrosis patient homozygous for Phe508del-CFTR (Lifeline Cell Technology) were cultured on cover slips in BronchiaLife Cell Culture Medium supplemented with BrochiaLife LifeFactors Kit (Lifeline Cell Technology) and maintained at 37° C. in a CO2 incubator. Cells were treated with DMSO, 4 μM ALT-59, 2 μM ALT-308, or 4 μM ALT-410 for 3 days.
(§5) Cells were fixed in 4% paraformaldehyde for 15 minutes and permeabilized in 0.1% Triton X-100 for 2 minutes. After being blocked in 5% BSA (Sigma-Aldrich), cells were incubated with anti-CFTR antibody (Alomone Labs) followed by Alexa Fluor 488 anti-rabbit secondary antibody. Reagents were buffered in GIBCO PBS (Phosphate-Buffered Saline). Images were taken using Carl Zeiss LSM 510 Laser Scanning Microscope. Parameters were set identical for all images.

[4] = test system: CFTR; assay: CFTR localization, immunofluorescence microscopy, MDA-MB-231 cells; format: cell-based; details: 4 μM, 3 days
Protocol: as §4, §5

[5] = test system: Beta-secretase 1 (BACE1); assay: BACE1 protein level, Western blot in U-87 MG cells; format: cell-based; details: 2 days
Protocol: as §3

[6] = biological target: T1, TDP43-His (Homo sapiens, UniProt Q13148); assay: Expression of histidine-tagged TDP-43 in E. coli whole cell lysates; format: cell-based; details: 60 μM ALT-59 with 2 μg/ml PMBN, 0.5 mM IPTG, Rosetta (DE3) cells, Coomassie stain
T1 construct: made in house; host or cells: E. coli Rosetta (DE3), vector pRETb/TDP43-His; protein not purified, read in whole cell lysate
T1 sequence (Q13148 whole entry): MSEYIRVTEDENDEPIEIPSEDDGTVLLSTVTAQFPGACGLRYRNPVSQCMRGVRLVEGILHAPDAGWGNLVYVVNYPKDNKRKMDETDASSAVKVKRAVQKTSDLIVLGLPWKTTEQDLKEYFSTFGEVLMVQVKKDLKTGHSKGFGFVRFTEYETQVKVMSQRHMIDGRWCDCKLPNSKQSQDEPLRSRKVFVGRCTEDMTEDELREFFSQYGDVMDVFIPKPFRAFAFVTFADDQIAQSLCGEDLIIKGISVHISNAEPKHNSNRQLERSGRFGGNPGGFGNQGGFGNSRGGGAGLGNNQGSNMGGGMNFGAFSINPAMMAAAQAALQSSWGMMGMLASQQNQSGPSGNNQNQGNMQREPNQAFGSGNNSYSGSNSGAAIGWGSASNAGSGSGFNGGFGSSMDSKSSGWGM
Protocol: Rosetta (DE3) cells were transformed with pRETb/TDP43-His according manufacture's instruction. After the culture from a single colony reached O.D 0.6 with shaking at 37° C. for 5 hours, it was split into six equal cultures and treated as indicated in FIG. 3. (Lane 1) un-induced blank; (Lane 2) 0.5 mM IPTG, 60 μM DMSO; (Lane 3) 0.5 mM IPTG, 60 μM ALT-59; (Lane 4) 0.5 mM IPTG, 2 μg/ml PMBN; (Lane 5) 0.5 mM IPTG, 2 μg/ml PMBN, 30 μM ALT-59; (Lane 6) 0.5 mM IPTG, 2 μg/ml PMBN, 60 μM ALT-59. Cells were cultured overnight at 25° C. on a shaker and then collected, sonicated in protein sample buffer and boiled before loading on a 10% SDS-PAGE gel. Protein were visualized by Coomassie Brilliant Blue stain.

[7] = test system: BACE1; assay: BACE1 expression, Western blot in T98G cells; format: cell-based; details: 2 days
Protocol: as §3

[8] = test system: POLDIP3 exon 3; assay: POLDIP3 exon 3 splicing, RT-PCR; format: cell-based; details: MDA-MB-231 cells
Protocol: as §1, §2

[9] = test system: transgenic C. elegans expressing full-length (wild-type) human TDP-43; assay: Paralysis caused by hTDP-43 expression in C. elegans; format: in vivo; details: 10 μM ALT-59 in NGM plates
Protocol: Wild-type N2 strain or transgenic C. elegans expressing full-length (wild-type) human TDP-43 (strain number, CL6049, Caenorhabditis Genetics Center, Minneapolis, Minn.) were placed on freshly prepared Nematode Growth Medium (NGM) petri plates with or without 10 μM ALT-59.
Uncoordinated phenotypes were imaged, and movement deficits were quantified by counting body thrashes in liquid after recording under an inverted microscope.

[10] = test system: BACE1; assay: Screening for ALT-59 derivatives with BACE1 protein levels as indicator, U-87 MG cells; format: cell-based; details: 2 days, concentrations as indicated in FIGS. 15-17
Protocol: Additional experiments were performed to screen for compounds with higher potency and the ability to penetrate blood brain barrier using BACE1 protein levels as an indicator. U-87 MG cells were cultured as described previously and treated for 2 days with compounds at concentrations as indicated in FIGS. 15-17. Cells were then subjected to Western blotting analysis using anti-BACE1 and anti-beta-actin antibodies.

CN(C)c1ccc(C2Nc3ccc4ccccc4c3C3=C2C(=O)CC(C)(C)C3)cc1Br (centres unmarked) [ALT-59, 5-(3-bromo-4-(dimethylamino)phenyl)-2,2-dimethyl-2,3,5,6-tetrahydrobenzo[a]phenanthridin-4(1H)-one]
ApoA2 splicing [1]: blocking ApoA2 splicing | reduction of Tau expression ([2]; 3 μM): 52% | reduction of Tau expression ([2]; 6 μM): 38% | localization of Phe508del-CFTR on the plasma membrane [3]: increased localization of Phe508del-CFTR on the plasma membrane | CFTR localization [4]: redistribution of CFTR from the perinuclear region to the plasma membrane | reduction of BACE1 protein level ([5]; 3 μM): 20% | reduction of BACE1 protein level ([5]; 6 μM): 50% | TDP43-His protein expression [6]: increased protein expression | reduction of BACE1 expression ([7]; 3 μM): 31% | reduction of BACE1 expression ([7]; 6 μM): 53% | splicing of POLDIP3 exon 3 [8]: remain unchanged | coiled body posture and uncoordinated phenotype [9]: rescued the coiled body posture and uncoordinated phenotype | percentage of paralysis ([9]; without treatment 93%): 29.5% | BACE1 protein expression [10]: capable of lowering BACE1 expression

Reference: patent US20230095021A1, “MODULATORS OF TDP-43” (Alteron Therapeutics, Inc., priority 2019, published 2023)
